Measured values as given in patent US20220089663A1, “PROTEINS AND FLUOROPHORE-CONTAINING COMPOUNDS SELECTIVE FOR NaV1.7” (MEMORIAL SLOAN KETTERING CANCER CENTER, priority 2019, published 2022).

Columns and labels:
hNav1.6 = biological target: T1, hNav1.6 (Homo sapiens, UniProt Q9UQD0); experiment: automated whole-cell patch clamp (QPatch 16X), HEK293-hNav1.6; assay type: cell-based
T1 construct: host or cells: HEK293

hNav1.7 = biological target: T2, hNav1.7 (Homo sapiens, UniProt Q15858); experiment: conventional whole cell patch clamp, kinetic studies on hNav1.7; assay type: cell-based
T2 construct: host or cells: HEK293
T2 sequence (Q15858 whole entry): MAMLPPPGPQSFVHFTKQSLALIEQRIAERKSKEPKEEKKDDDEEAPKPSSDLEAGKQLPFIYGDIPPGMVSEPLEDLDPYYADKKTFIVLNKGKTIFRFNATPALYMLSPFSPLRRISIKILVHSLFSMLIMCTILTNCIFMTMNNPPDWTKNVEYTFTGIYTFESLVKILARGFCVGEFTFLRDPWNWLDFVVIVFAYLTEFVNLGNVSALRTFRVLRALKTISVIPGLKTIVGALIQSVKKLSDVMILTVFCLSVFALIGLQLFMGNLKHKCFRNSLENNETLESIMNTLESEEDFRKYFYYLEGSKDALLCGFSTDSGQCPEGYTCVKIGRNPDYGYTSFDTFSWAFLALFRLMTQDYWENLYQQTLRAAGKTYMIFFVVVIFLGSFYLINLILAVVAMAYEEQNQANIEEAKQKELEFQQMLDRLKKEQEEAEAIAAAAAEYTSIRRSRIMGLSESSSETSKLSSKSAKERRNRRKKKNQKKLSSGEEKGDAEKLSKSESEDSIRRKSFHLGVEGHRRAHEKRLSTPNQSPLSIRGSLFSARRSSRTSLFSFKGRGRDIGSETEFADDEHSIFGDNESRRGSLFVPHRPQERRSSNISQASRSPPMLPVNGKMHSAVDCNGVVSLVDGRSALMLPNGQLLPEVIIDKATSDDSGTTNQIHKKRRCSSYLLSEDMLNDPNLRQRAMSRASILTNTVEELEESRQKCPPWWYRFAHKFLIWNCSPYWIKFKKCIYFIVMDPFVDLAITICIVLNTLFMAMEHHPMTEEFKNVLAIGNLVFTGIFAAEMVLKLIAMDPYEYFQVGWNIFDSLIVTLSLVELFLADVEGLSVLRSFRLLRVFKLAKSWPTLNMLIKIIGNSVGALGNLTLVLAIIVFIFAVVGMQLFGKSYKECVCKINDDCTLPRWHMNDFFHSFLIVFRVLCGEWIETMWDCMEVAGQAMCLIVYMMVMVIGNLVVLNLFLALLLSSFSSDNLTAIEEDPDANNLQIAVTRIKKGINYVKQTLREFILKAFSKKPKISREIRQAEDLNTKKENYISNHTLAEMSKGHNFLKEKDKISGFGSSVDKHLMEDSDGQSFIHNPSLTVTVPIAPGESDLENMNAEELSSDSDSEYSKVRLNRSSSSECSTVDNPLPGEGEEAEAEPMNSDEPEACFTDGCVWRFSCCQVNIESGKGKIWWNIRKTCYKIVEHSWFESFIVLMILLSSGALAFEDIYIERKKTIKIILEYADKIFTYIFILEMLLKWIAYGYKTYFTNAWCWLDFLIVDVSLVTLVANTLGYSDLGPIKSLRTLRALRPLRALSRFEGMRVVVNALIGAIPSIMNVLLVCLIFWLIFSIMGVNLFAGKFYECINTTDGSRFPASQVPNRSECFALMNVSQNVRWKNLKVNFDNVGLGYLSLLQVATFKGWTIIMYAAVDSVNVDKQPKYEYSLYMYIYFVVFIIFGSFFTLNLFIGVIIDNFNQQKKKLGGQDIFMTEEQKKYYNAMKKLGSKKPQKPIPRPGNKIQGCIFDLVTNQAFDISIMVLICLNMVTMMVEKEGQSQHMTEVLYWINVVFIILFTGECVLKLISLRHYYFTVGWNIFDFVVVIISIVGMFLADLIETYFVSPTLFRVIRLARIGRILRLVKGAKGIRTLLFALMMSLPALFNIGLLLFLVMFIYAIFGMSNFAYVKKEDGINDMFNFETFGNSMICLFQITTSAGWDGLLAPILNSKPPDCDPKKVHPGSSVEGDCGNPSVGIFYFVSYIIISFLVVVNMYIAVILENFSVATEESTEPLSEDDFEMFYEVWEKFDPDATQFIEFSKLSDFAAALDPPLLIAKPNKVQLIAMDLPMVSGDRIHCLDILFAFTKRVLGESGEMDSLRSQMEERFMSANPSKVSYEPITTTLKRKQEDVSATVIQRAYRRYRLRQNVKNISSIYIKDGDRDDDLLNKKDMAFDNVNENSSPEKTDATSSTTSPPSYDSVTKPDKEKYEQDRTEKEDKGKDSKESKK
T2 sequence (Q07699 19-218, further chain): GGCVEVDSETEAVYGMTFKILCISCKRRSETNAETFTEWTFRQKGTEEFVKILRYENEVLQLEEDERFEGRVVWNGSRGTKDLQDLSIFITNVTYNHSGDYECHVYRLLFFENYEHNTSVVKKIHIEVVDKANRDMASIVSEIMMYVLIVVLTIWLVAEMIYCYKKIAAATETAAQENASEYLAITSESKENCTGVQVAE
Protocol: Conventional patch clamp. Coverslips containing cells of HEK293 stable expressing hNav1.7 α and human β1 subunits were placed in a recording chamber on the stage of an inverted microscope with the extracellular solution containing 140 mM NaCl, 2 mM CaCl2, 4 mM KCl, 1 mM MgCl2, and 10 mM HEPES (pH 7.4 with NaOH). […] All recordings were made at room temperature (22-24° C.) using MultiClamp 700B amplifier, Axo™ Digidata® 1550B and PCLAMP software (Molecular Devices). Nav channel currents were measured using the whole cell configuration of the patch clamp technique. All peptides were dissolved in the extracellular solution with 0.1% BSA. The effects of peptides were tested by using the same voltage protocol as showing in the Qpatch technique. Concentration response data were analysed using nonlinear least-squares fit of the log (inhibitor) vs. response (three parameters) (GraphPad Prism 7) to provide pIC50 determinations. The conductance-voltage (G-V) relationships obtained by using a protocol in which cells depolarised from a holding potential of −120 mV, stepping from −80 to +60 mV in 5 mV increments. Steady-state inactivation was obtained by applying a depolarisation to 0 mV following a series step potential from −120 mV to 20 mV in 5 mV increments. The V0.5 activation and inactivation were calculated by fitting data with Boltzmann equation in GraphPad Prism 7. Recovery from fast inactivation was obtained by applying a first 0 mV pulse followed by repolarisation to −120 mV and a second pulse to 0 mV after a period ranging from 0 to 50 ms, increasing in 1 ms increments. The time constant was calculated by fitting data with one-phase decay in GraphPad Prism 7.

CVH mice = experiment: visceromotor response (VMR) to colorectal distension in chronic visceral hypersensitivity (CVH) mice; assay type: in vivo, mouse; conditions: intra-colonic 200 nM
Protocol: Model of Chronic Visceral Hypersensitivity (CVH). All experiments were performed in accordance with the guidelines of the Animal Ethics Committees of the South Australian Health and Medical Research Institute (SAHMRI) and Flinders University. Male C57 BL/6 mice were used in all experiments.
Colitis was induced by administration of Trinitrobenzene Sulphonic acid (TNBS) as described previously (Castro et al., Gut 66(6):1083-1094 (2017); Osteen et al., Nature 534: 494-499 (2016)). Briefly, 13-week-old mice were fasted overnight with access to 5% glucose solution. After the fasting period, isofluorane anaesthetized mice were administered an intracolonic enema of 0.1 mL TNBS ([…] in 30% EtOH) via a polyethylene catheter inserted 3 cm past the anus. […]
In vivo Visceromotor Responses (VMR) to Colorectal Distension (CRD). […] The EMG electrodes were relayed to a data acquisition system and the signal was recorded (NL100AK headstage), amplified (NL104), filtered (NL 125/126, Neurolog, Digitimer Ltd, bandpass 50-5000 Hz) and digitized (CED 1401, Cambridge Electronic Design, Cambridge, UK) to a PC for off-line analysis using Spike2 (Cambridge Electronic Design). […] To quantify the magnitude of the VMR at each distension pressure, the area under the curve (AUC) during the distension (20 s) was corrected for the baseline activity (AUC pre-distension, 20 s).

[1] = 60 nM, compared to vehicle, P<0.01

T1 sequence (Q07699 19-218): as the sequence (Q07699 19-218, further chain) above
T1 sequence (Q9UQD0 whole entry): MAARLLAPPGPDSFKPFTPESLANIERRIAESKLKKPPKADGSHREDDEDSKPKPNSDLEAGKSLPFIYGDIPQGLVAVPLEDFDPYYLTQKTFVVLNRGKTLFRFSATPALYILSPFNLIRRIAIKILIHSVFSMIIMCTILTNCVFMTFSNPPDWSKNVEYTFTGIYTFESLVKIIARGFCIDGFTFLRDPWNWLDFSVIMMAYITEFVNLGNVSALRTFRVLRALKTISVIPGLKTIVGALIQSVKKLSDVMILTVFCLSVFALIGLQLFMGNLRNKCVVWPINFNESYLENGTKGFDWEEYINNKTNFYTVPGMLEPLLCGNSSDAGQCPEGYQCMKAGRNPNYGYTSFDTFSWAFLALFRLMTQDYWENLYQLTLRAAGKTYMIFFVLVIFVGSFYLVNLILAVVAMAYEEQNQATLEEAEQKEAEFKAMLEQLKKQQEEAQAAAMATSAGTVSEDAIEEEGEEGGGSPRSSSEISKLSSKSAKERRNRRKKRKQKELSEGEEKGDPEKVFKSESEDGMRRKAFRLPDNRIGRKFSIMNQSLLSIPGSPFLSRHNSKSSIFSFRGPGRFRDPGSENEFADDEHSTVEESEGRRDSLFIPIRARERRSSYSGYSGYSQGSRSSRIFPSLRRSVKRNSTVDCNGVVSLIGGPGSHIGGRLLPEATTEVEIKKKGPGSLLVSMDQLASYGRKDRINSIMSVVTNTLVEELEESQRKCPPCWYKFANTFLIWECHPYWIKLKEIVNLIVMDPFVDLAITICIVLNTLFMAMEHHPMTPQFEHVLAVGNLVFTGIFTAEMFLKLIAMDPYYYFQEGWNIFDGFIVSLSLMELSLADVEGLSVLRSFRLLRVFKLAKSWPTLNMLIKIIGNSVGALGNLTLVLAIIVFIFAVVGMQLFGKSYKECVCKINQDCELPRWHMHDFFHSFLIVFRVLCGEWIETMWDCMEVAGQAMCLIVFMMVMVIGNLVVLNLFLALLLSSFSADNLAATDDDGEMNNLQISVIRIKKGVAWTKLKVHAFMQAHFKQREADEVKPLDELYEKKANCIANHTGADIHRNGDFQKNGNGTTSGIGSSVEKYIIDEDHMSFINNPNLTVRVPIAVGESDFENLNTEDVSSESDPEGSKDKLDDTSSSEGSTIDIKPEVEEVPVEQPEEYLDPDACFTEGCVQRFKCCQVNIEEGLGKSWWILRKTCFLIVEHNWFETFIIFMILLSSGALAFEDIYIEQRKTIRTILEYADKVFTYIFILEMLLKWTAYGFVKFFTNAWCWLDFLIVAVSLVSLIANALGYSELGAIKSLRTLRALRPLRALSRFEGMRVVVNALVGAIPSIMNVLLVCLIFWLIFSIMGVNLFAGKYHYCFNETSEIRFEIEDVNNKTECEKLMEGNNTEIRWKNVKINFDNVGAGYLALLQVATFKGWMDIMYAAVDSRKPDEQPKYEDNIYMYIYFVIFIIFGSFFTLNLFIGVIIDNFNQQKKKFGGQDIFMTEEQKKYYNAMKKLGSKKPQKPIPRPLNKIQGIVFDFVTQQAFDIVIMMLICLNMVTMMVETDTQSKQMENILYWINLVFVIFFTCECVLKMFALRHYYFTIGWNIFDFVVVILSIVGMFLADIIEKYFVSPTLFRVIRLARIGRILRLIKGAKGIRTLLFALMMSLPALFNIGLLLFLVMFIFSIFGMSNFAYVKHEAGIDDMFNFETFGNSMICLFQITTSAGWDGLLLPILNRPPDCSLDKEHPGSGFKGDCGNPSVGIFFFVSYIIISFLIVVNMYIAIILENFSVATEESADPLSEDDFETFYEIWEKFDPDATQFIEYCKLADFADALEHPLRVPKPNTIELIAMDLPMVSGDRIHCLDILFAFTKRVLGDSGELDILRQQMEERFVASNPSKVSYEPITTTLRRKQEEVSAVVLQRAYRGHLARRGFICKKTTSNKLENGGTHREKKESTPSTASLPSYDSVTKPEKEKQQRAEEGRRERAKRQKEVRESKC

For CC[C@H](C)[C@H](NC(=O)[C@H](CCCCN)NC(=O)[C@@H]1CSSC[C@@H]2NC(=O)[C@@H]3CCCN3C(=O)[C@H](CCCNC(=N)N)NC(=O)[C@H](CCC(=O)O)NC(=O)[C@H](CO)NC(=O)[C@H](CC(=O)O)NC(=O)[C@@H]3CSSC[C@H](NC(=O)[C@H](C(C)C)NC(=O)[C@H](CC(C)C)NC(=O)CNC(=O)[C@H](CCC(=O)O)NC(=O)[C@H](CSSC[C@H](NC(=O)[C@@H](N)Cc4ccc(O)cc4)C(=O)N[C@@H](CCC(N)=O)C(=O)N[C@@H](CCCCN)C(=O)N[C@@H](Cc4ccccc4)C(=O)N[C@@H](CC(C)C)C(=O)N[C@@H](Cc4c[nH]c5ccccc45)C(=O)N[C@@H]([C@@H](C)O)C(=O)N3)NC2=O)C(=O)N[C@@H](CCCNC(=N)N)C(=O)N[C@@H](CC(C)C)C(=O)N[C@@H](Cc2c[nH]c3ccccc23)C(=O)N1)C(=O)N[C@@H](CC(N)=O)C(N)=O [sHsp1a], the “inhibition of hNav1.6 currents” value (hNav1.6; at 200 nM) was “did not show any significant inhibition”, the inhibition at 2 µM (hNav1.6; at 2 μM, read-out: max. current inhibition hNav1.6) was under 50% and the IC50 (hNav1.6; read-out: pIC50 on hNav1.6 (converted)) was over 1000 nM. The “V0.5 inactivation Δ” value (hNav1.7; [1]) was −11.62 mV, the “Δτ, recovery from fast inactivation” value (hNav1.7; [1]) was 1 ms and the “time for currents to recover following washout in peptide-free solution” value (hNav1.7; after application of 200 nM for 4 min) was about 10 min. For the same compound, the “time constant τ of recovery from fast inactivation” value (hNav1.7; in presence of 60 nM, n=5, mean±SEM) was 5.03 ± 0.43 ms and the “VMR to colorectal distension compared to CVH vehicle treated animals” value (CVH mice) was “significantly reduced the VMR”.
